Test results as given in article PMC3790268 (Bioorganic & medicinal chemistry letters, 2013).

Target: rat nNOS (Rattus norvegicus, UniProt P29476)
Details: compared with (R,R)-16a, (S,S)-16b and (R)-6b

## Cc1cc(N)nc(COC[C@@H](N)[C@H](C)OCc2cc(C)cc(N)n2)c1 [(S,R)-16c]
  decreased affinity for nNOS: 10 fold
